{
  "source": "patent US20230365988A1",
  "about": "“MOUSE MODEL FOR BIO-IMAGING OF INFLAMMATORY SIGNALS, PREPARATION METHOD THEREFOR AND USE THEREOF” (KOREA MOUSE PHENOTYPING CENTER, priority 2020, published 2023)",
  "key": {"NF-κB [1]": {"system": "NF-κB", "assay": "Luciferase activity in LPS-treated bone marrow-derived macrophages of the myeloid-specific NF-κB reporter mouse", "type": "cell-based", "conditions": "6 hours", "protocol": "(§1) Macrophages, mononuclear cells, derived from the bone marrow of the mouse model established in Example <2-1> were differentiated, luciferase activity was confirmed, and NF-κ activity and luciferase protein expression were confirmed by Western blotting. In addition, 20 uM BAY 11-7082 (NF-kB inhibitor) was treated simultaneously with LPS in the same manner as above to evaluate the luciferase activity.\nParticularly, the mouse was euthanized with CO2, the femur and tibia were obtained, and the bone marrow cavity was exposed. Then, RPMI 1640 culture medium (10% FBS, 1% penicillin, stretptomycin) containing M-CSF was passed through using a 1 ml syringe, and the contents were collected to make 6 ml of the culture medium. Thereafter, the contents were transferred to a Petri dish and cultured for 3 days at 37° C. under 5% CO2 conditions, and then the medium was replaced with fresh RPMI 1640 culture medium. After 3 days, the culture medium was removed from the Petri dish and washed with PBS (phosphate buffered saline). […] After 6 hours, the culture medium was removed, and 100 μl of HBSS (Hanks' Balanced Salt solution) containing D-luciferin was added to each well of the plate, and then the luciferase activity was evaluated."}, "NF-κB [2]": {"system": "NF-κB", "assay": "PMA-induced ear edema model, luciferase imaging", "type": "in vivo", "conditions": "2 μg PMA on left ear twice at a 24 hour interval, measured 24 hours later, Lyz2-Cre reporter mouse", "protocol": "To confirm imaging of inflammatory signals in the mouse model established in Example <2-1>, ear edema was induced by treatment with PMA (phorbol 12-myristate 13-acetate), an inflammatory factor.\nParticularly, the left ear of the mouse was treated with 2 μg/40 ? of PMA diluted in ethanol using a micropipette, and the right ear was treated with the same amount of ethanol (40 ? ). After 24 hours, the left ear was treated with 2 μg of PMA, and the right ear was treated with the same amount of ethanol (40 ? ). After another 24 hours, 100 ? of D-luciferin (15 mg/ml in PBS) was intraperitoneally administered using a 1 ml syringe, and luciferase signals were measured in the ears of the mouse under respiratory anesthesia with isoflurane."}, "NF-κB [3]": {"system": "NF-κB", "assay": "DSS-induced colitis model, luciferase imaging", "type": "in vivo", "conditions": "3% DSS as drinking water, days 3 and 5, Lyz2-Cre reporter mouse", "protocol": "Colitis was induced by DSS (dextran sulfate sodium salt) in the mouse model established in Example <2-1>, and it was confirmed whether bio-imaging of inflammatory signals over time was possible.\nParticularly, 6 g of DSS was added to sterilized tertiary distilled water and stirred for 60 minutes to prepare a 3% DSS aqueous solution. […] After the measurement, the 3% DSS aqueous solution was supplied as drinking water to the mice. While maintaining DSS supply, 100 ? of D-luciferin (15 mg/ ? in PBS) was intraperitoneally administered using a 1 ? syringe on the days after 3 and 5 days after the start of DSS supply, and luciferase signals were measured in the abdomen."}, "NF-κB [4]": {"system": "NF-κB", "assay": "Western blotting of luciferase expression in LPS-treated bone marrow-derived macrophages", "type": "cell-based, mouse", "conditions": "LPS 10 ng/ml and 100 ng/ml, 6 hours", "protocol": "as §1\nFor Western blotting, the detached cells were diluted in RPMI 1640 culture medium, and then distributed in a 6 well plate at the density of 70,000 cells/well, followed by culture. After 24 hours of culture, the experimental group was treated with LPS at the concentrations of 10 ng/ml and 100 ng/ml for 6 hours. The culture medium was removed and homogenized with a buffer containing 20 mM Tris-HCl (pH 7.4), 1% Triton X-100, 15 mM NaCl and protease inhibition cocktail, and centrifuged at 4° C., 13,000 g for 20 minutes. Then, SDS-PAGE (sodium dodecyl sulfate-polyacrylamide gel electrophoresis) was performed using the supernatant to separate proteins. The separated proteins were transferred to a PVDF membrane and blocked with TBST buffer (Tris-Buffered Saline, 0.1% TWEEN 20) containing 5% skim milk powder. […]"}},
  "note": "“Also recorded” adds a separate entry of the source.",
  "data": [
    {"compound": "Cc1ccc(S(=O)(=O)/C=C/C#N)cc1", "note": "[BAY 11-7082]", "values": [
      {"measurement": "LPS-increased luciferase signal activity (NF-kB activity) after inhibitor treatment", "setting": "NF-κB [1]; 20 uM BAY 11-7082 simultaneously with LPS (10 and 100 ng/ml)", "value": "inhibited; also recorded: suppressed"}
    ]},
    {"compound": "CCCCCCCCCCCCCC(=O)O[C@@H]1[C@@H](C)[C@@]2(O)[C@@H](C=C(CO)C[C@]3(O)C(=O)C(C)=C[C@@H]23)[C@@H]2C(C)(C)[C@]12OC(C)=O", "note": "[PMA, phorbol 12-myristate 13-acetate]", "values": [
      {"measurement": "luciferase signal in treated left ear compared to ethanol-treated right ear", "setting": "NF-κB [2]", "value": "specifically strong"}
    ]},
    {"compound": "dextran sulfate sodium salt [DSS]", "values": [
      {"measurement": "luciferase signal in the large intestine region of the abdomen", "setting": "NF-κB [3]", "value": "strongly expressed"}
    ]},
    {"compound": "lipopolysaccharide [LPS]", "values": [
      {"measurement": "luciferase signal activity", "setting": "NF-κB [1]; LPS 10 ng/ml and 100 ng/ml", "value": "increased by LPS dose-dependently"},
      {"measurement": "luciferase expression by Western blotting", "setting": "NF-κB [4]", "value": "luciferase expression was increased"}
    ]}
  ]
}
